Data from US8512709B2, “Modified amyloid β peptide” (The Chemo-Sero-Therapeutic Research Institue, priority 2008, dated 2013).

Tested on: Aβ peptide (1-40 amino acid sequence)
Experiment: Anti-Aβ IgG antibody titer of murine serum after immunization with Aβ peptides (ELISA on immobilized Aβ 1-40)
Assay type: in vivo, C57BL/6 mice
Conditions: for Antibody titer Animal No. 1 / Antibody titer Animal No. 2 / Antibody titer Animal No. 3 / Antibody titer Animal No. 4: C57BL/6 mouse serum, Day 7 from final 3rd immunization; for Antibody titer Animal No. 1 / Antibody titer Animal No. 2 / Antibody titer Animal No. 3 / Antibody titer Animal No. 4 / Antibody titer Mean: 100 μg/mouse; for Antibody titer Mean: mean of 4 mice, serum Day 7 from final 3rd immunization
[1] = Example 2, result in words on Table 2
[2] = Example 1, result in words on Table 1

Row | Sequence | Antibody titer Animal No. 1 (Example 2) | Antibody titer Animal No. 2 (Example 2) | Antibody titer Animal No. 3 (Example 2) | Antibody titer Animal No. 4 (Example 2) | Antibody titer Mean (Example 2) | induction of an antibody to Aβ [1] | other results
1 | DAEFRHDSGYKGAIIGLMVGC [1-10•28-37AACys, 1-10+28-37-amino acid Aβ peptide with addition of Cysteine] | 79708 ng/mL | 1531 ng/mL | 24694 ng/mL | 100619 ng/mL | 51638.0 ng/mL | observed | 
2 | DAEFRHDSGYKGAIIGLMVGGC [1-10•28-38AACys, 1-10+28-38-amino acid Aβ peptide with addition of Cysteine] | 19149 ng/mL | 34270 ng/mL | 108780 ng/mL | 61824 ng/mL | 56005.8 ng/mL | observed | 
3 | DAEFRHDSGYKGAIIGLMVGGVC [1-10•28-39AACys, 1-10+28-39-amino acid Aβ peptide with addition of Cysteine] | 139361 ng/mL | 10808 ng/mL | 13326 ng/mL | 230453 ng/mL | 98487.0 ng/mL | observed | 
4 | DAEFRHDSGYKGAIIGLMVGGVVC [1-10•28-40AACys, 1-10+28-40-amino acid Aβ peptide with addition of Cysteine] | 4560 ng/mL | 148622 ng/mL | 5118 ng/mL | 4988 ng/mL | 40822.0 ng/mL | observed | 
5 | DAEFRHDSGYKGAIIGLMVGGVVIA [1-10•28-42AA, 1-10+28-42-amino acid Aβ peptide, without addition of cysteine, reference compound] |  |  |  |  |  |  | Antibody titer Animal No. 1 (Example 1): 66 ng/mL; Antibody titer Animal No. 2 (Example 1): 715 ng/mL; Antibody titer Animal No. 3 (Example 1): 3559 ng/mL; Antibody titer Animal No. 4 (Example 1): 13 ng/mL; Antibody titer Mean (Example 1): 1088.5 ng/mL; induction of an antibody to Aβ [2]: observed
6 | DAEFRHDSGYKGAIIGLMVGGVVIAC [1-10•28-42AACys, 1-10+28-42-amino acid Aβ peptide with addition of Cysteine] | 32 ng/mL | 30482 ng/mL | 33623 ng/mL | 2072 ng/mL | 16552.3 ng/mL | observed | antibody titer against Aβ as compared to the peptide without addition of cysteine (1-10·28-42AA) (Example 1): higher antibody titer; Antibody titer Animal No. 1 (Example 1): 46266 ng/mL; Antibody titer Animal No. 2 (Example 1): 19854 ng/mL; Antibody titer Animal No. 3 (Example 1): 40681 ng/mL; Antibody titer Animal No. 4 (Example 1): 33 ng/mL; Antibody titer Mean (Example 1): 26708.6 ng/mL; induction of an antibody to Aβ [2]: observed; Antibody titer Animal No. 1 (Example 5): 886.2 ng/mL; Antibody titer Animal No. 2 (Example 5): 463379 ng/mL; Antibody titer Animal No. 3 (Example 5): 414.8 ng/mL; Antibody titer Animal No. 4 (Example 5): 3314 ng/mL; Antibody titer Mean (Example 5): 116998.5 ng/mL
7 | DAEFRHDSGYKGAIIGLMVGGVVIC [1-10•28-41AACys, 1-10+28-41-amino acid Aβ peptide with addition of Cysteine] | 292 ng/mL | 1000 ng/mL | 48460 ng/mL | 422012 ng/mL | 117941.1 ng/mL | observed | 
8 | DAEFRHDSKGAIIGLMVGC [1-8•28-37AACys, 1-8+28-37-amino acid Aβ peptide with addition of Cysteine] |  |  |  |  |  |  | Antibody titer Animal No. 1 (Example 3): 16 ng/mL; Antibody titer Animal No. 2 (Example 3): 16 ng/mL; Antibody titer Animal No. 3 (Example 3): 43 ng/mL; Antibody titer Animal No. 4 (Example 3): 31 ng/mL; Antibody titer Mean (Example 3): 26.4 ng/mL
9 | EFRHDSGYKGAIIGLMVGC (added cysteine) [3-10•28-37AACys, 3-10+28-37-amino acid Aβ peptide with addition of Cysteine] |  |  |  |  |  |  | Antibody titer Animal No. 1 (Example 4): 3203 ng/mL; Antibody titer Animal No. 2 (Example 4): 1456 ng/mL; Antibody titer Animal No. 3 (Example 4): 4500 ng/mL; Antibody titer Animal No. 4 (Example 4): 52 ng/mL; Antibody titer Mean (Example 4): 2302.8 ng/mL; induction of an antibody to Aβ (Example 4, result in words on Table 4): observed
10 | FRHDSGYKGAIIGLMVGC (added cysteine) [4-10•28-37AACys, 4-10+28-37-amino acid Aβ peptide with addition of Cysteine] |  |  |  |  |  |  | Antibody titer Animal No. 1 (Example 4): 24 ng/mL; Antibody titer Animal No. 2 (Example 4): 31 ng/mL; Antibody titer Animal No. 3 (Example 4): 53 ng/mL; Antibody titer Animal No. 4 (Example 4): 27 ng/mL; Antibody titer Mean (Example 4): 33.8 ng/mL
